Test results reported in US11878975B2, “Substituted indole compounds useful as TLR inhibitors” (BRISTOL-MYERS SQUIBB COMPANY, priority 2017, dated 2024).

What was measured:
Format in all cases: cell-based
human TLR8 = target: T1, human TLR8 (Homo sapiens, UniProt Q9NR97); experiment: TLR8 inhibition reporter assay (HEK-Blue cells, SEAP reporter, R848 stimulation); conditions: HEK-Blue cells overexpressing human TLR8, SEAP reporter, R848 15.9 μM
T1 construct: host or cells: HEK-Blue cells
T1 sequence (Q9NR97 27-1041): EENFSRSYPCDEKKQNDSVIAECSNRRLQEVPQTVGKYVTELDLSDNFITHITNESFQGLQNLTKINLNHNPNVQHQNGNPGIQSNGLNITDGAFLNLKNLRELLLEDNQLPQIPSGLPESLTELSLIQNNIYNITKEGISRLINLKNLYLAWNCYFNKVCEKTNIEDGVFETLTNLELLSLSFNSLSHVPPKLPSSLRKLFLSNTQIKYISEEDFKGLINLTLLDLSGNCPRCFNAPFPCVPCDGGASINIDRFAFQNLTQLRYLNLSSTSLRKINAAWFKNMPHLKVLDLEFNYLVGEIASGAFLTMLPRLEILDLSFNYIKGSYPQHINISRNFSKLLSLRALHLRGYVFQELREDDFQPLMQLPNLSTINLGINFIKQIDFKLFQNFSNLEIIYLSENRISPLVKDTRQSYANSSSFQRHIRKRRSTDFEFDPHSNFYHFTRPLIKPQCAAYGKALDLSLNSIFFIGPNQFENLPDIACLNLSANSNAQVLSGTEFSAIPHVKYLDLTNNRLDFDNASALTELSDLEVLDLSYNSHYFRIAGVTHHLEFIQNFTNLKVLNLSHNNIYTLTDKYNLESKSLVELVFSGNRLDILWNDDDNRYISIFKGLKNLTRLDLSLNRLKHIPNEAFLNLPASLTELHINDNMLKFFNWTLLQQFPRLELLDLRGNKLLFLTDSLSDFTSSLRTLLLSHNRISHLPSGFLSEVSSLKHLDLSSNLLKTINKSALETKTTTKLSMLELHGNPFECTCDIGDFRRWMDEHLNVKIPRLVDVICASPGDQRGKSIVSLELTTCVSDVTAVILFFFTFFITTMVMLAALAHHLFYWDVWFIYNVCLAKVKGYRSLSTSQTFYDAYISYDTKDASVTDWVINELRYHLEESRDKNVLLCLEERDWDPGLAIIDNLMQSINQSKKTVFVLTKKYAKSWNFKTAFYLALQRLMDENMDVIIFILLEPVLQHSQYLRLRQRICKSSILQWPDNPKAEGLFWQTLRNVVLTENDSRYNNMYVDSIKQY
Summary of the method: (§1)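 Percent inhibition is derived from SEAP signal, scaled between agonist-plus-DMSO wells and wells given a known inhibitor. Test compounds (0.05 nM–50 μM) are pre-incubated 30 min at room temperature before agonist addition (TLR7: 7.5 μM gardiquimod; TLR8: 15.9 μM R848; TLR9: 5 nM ODN2006) and 22 h culture at 37 °C.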

human TLR7 = target: T2, human TLR7 (Homo sapiens, UniProt Q9NYK1); experiment: TLR7 inhibition reporter assay (HEK-Blue cells, SEAP reporter, gardiquimod stimulation); conditions: HEK-Blue cells overexpressing human TLR7, SEAP reporter, gardiquimod 7.5 μM
T2 construct: host or cells: HEK-Blue cells
T2 sequence (Q9NYK1 27-1049): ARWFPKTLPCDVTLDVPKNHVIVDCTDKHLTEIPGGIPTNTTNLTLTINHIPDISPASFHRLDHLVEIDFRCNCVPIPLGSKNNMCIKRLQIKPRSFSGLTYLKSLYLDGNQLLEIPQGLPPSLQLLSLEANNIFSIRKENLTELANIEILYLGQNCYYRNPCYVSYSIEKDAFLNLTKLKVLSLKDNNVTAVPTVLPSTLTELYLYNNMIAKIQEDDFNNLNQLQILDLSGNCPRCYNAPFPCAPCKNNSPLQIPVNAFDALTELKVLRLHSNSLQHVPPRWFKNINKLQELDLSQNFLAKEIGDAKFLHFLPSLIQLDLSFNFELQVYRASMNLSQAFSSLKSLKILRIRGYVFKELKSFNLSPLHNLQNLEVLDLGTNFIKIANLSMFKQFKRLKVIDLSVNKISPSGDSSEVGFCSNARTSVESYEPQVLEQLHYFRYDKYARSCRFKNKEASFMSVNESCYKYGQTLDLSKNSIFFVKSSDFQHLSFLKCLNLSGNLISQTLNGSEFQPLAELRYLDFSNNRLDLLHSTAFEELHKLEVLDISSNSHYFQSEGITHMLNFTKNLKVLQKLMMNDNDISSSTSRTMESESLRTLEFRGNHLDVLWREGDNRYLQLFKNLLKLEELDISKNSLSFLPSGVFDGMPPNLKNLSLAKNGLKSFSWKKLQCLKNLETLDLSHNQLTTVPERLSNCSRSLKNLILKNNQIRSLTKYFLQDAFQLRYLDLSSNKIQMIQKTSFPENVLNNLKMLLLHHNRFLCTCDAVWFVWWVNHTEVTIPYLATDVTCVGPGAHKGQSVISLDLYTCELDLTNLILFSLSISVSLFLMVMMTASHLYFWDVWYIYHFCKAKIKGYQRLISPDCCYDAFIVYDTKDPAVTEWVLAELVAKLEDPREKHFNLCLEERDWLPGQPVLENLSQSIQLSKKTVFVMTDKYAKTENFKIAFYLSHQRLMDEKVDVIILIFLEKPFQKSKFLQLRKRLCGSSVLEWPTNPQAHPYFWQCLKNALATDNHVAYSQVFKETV
Summary of the method: as §1

human TLR9 = target: T3, human TLR9 (Homo sapiens, UniProt Q9NR96); experiment: TLR9 inhibition reporter assay (HEK-Blue cells, SEAP reporter, ODN2006 stimulation); conditions: HEK-Blue cells overexpressing human TLR9, SEAP reporter, ODN2006 5 nM
T3 construct: host or cells: HEK-Blue cells
T3 sequence (Q9NR96 26-1032): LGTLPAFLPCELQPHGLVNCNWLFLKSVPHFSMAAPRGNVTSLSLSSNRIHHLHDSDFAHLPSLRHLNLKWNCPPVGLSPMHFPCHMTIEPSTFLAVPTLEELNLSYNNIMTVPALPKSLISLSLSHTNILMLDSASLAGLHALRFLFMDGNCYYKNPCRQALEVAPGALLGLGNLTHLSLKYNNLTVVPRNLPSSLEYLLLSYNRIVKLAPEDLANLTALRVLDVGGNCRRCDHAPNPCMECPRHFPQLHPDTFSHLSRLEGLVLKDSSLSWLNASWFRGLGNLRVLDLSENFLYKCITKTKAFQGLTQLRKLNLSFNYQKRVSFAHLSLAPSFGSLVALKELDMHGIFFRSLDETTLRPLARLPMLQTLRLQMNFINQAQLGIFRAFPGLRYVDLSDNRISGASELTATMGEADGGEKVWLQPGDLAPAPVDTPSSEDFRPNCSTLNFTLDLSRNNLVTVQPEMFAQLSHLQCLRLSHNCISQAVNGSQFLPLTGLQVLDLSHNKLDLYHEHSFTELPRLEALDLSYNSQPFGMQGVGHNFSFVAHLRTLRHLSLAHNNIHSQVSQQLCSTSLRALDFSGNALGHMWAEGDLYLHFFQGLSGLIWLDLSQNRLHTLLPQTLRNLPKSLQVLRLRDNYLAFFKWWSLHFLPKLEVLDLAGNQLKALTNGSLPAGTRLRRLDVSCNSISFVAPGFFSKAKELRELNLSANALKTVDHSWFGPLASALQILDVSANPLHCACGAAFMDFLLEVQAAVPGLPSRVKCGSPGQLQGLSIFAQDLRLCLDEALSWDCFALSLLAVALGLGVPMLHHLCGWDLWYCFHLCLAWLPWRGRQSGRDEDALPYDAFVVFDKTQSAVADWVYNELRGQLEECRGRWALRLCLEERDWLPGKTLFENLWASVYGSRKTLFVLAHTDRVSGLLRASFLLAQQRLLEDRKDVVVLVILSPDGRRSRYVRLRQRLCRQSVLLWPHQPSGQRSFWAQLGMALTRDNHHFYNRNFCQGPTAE
Summary of the method: as §1

| SMILES | IC50 (human TLR8) [nM] | IC50 (human TLR7) [nM] | IC50 (human TLR9) [nM] |
| --- | --- | --- | --- |
| COc1cc(-c2[nH]c3ccc(CCN4CCOCC4)cc3c2C(C)C)cn2ncnc12 [Example 411] | 7.9 | 7 | 8960 |
| COc1cc(-c2[nH]c3ccc(CCN4CCN(C)CC4)cc3c2C(C)C)cn2ncnc12 [Example 413] | 0.9 | 2 | 2750 |
| Cc1c(-c2[nH]c3ccc(CC4CN(C5CCOCC5)C4)cc3c2C(C)C)cn(C)c(=O)c1C [Example 416] | 6.4 | 115 | 4090 |
| Cc1c(-c2[nH]c3ccc(CC4CNC4)cc3c2C(C)C)cn(C)c(=O)c1C [Example 417] | 36 | 76 | 2110 |
| Cc1c(-c2[nH]c3ccc(CC4CN(CCS(C)(=O)=O)C4)cc3c2C(C)C)cn(C)c(=O)c1C [Example 418] | 7 | 77 | 9210 |
| CCc1c(-c2ccc(OC)c(OC)c2)[nH]c2ccc(CC3CCCN3)cc12 (stereo not drawn) [Example 419] | 27 | 418 | 3760 |
| CCc1c(-c2ccnc(C)c2)[nH]c2ccc(CC3CCCN3)cc12 (stereo not drawn) [Example 420] | 38 | 306 | 1060 |
| CC(C)c1c(-c2ccnc3[nH]ncc23)[nH]c2ccc(C(C)C3CCNCC3)cc12 (stereo not drawn) [Example 423] | 16 | 34 | 2080 |
| Cc1cc(-c2[nH]c3ccc(CC4CCCN4CC(=O)N(C)C)cc3c2C(C)C)cn2ncnc12 (stereo not drawn) [Example 426] | 13 | 2 | 11200 |
| Cc1c(-c2[nH]c3ccc(CC4CCCN4C4COC4)cc3c2C(C)C)cn2cnnc2c1C (stereo not drawn) [Example 427] | 19 | 12 | 17600 |
| COc1cc(-c2[nH]c3ccc(CC4CNC4)cc3c2C(C)C)cn2ncnc12 [Example 430] | 41 | 12 | 860 |
| COc1cc(-c2[nH]c3ccc(CC4CN(CCS(C)(=O)=O)C4)cc3c2C(C)C)cn2ncnc12 [Example 431] | 3.5 | 2 | 2780 |
| COc1cc(-c2[nH]c3ccc(CC4CN(C(=O)CN(C)C)C4)cc3c2C(C)C)cn2ncnc12 [Example 434] | 7.4 | 1 | 7490 |

Continued by falling IC50 (human TLR8), values first:

| IC50 (human TLR8) [nM] | IC50 (human TLR7) [nM] | IC50 (human TLR9) [nM] | SMILES |
| --- | --- | --- | --- |
| 49 | 8 | 5350 | COc1cc(-c2[nH]c3ccc(CC4CN(CC#N)C4)cc3c2C(C)C)cn2ncnc12 [Example 432] |
| 38 | 40 | 5020 | Cc1c(-c2[nH]c3ccc(CC4CN(C(=O)CN(C)C)C4)cc3c2C(C)C)cn(C)c(=O)c1C [Example 415] |
| 17 | 11 | 6780 | Cc1c(-c2[nH]c3ccc(CC4CCCN4C4CCOCC4)cc3c2C(C)C)cn2cnnc2c1C (stereo not drawn) [Example 429] |
| 15 | 49 | 16200 | Cc1c(-c2[nH]c3ccc(CC4CCCN4CCS(C)(=O)=O)cc3c2C(C)C)cn2cnnc2c1C (stereo not drawn) [Example 428] |
| 11 | 3 | 10800 | Cc1c(-c2[nH]c3ccc(CC4CN(C(=O)CN(C)C)C4)cc3c2C(C)C)cn2ncnc2c1C [Example 436] |
| 4.2 | 8 | 4720 | Cc1c(-c2[nH]c3ccc(CC4CN(CCS(C)(=O)=O)C4)cc3c2C(C)C)cn2ncnc2c1C [Example 437] |
| 4 | 3 | 4510 | COc1cc(-c2[nH]c3ccc(CCN4CCCC4)cc3c2C(C)C)cn2ncnc12 [Example 414] |
| 4 | 14 | 1100 | CC(C)c1c(-c2ccnc3[nH]ncc23)[nH]c2ccc(CCC3CCNCC3)cc12 [Example 421] |
| 3 | 2 | 2190 | COc1cc(-c2[nH]c3ccc(CC4CN(C(C)C)C4)cc3c2C(C)C)cn2ncnc12 [Example 433] |
| 2.9 | 5 | 5270 | COc1cc(-c2[nH]c3ccc(CCN4CCCCC4)cc3c2C(C)C)cn2ncnc12 [Example 412] |
| 2.9 | 24 | 2100 | CC(C)c1c(-c2ccnc3[nH]ncc23)[nH]c2ccc(CC3CCNCC3)cc12 [Example 424] |
| 2.5 | 10 | 3410 | Cc1c(-c2[nH]c3ccc(CC4CN(C(C)C)C4)cc3c2C(C)C)cn2ncnc2c1C [Example 435] |
| 2.1 | 13 | 457 | CC(C)c1c(-c2ccnc3[nH]ncc23)[nH]c2ccc(/C=C/C3CCNCC3)cc12 [Example 422] |
| 1.4 | 0.72 | 2490 | Cc1cc(-c2[nH]c3ccc(CC4CCCN4C4CCOCC4)cc3c2C(C)C)cn2ncnc12 (stereo not drawn) [Example 425] |
| 0.72 | 13 | 15600 | Cc1cc(-c2[nH]c3ccc(CCN4CC[C@@H](F)C4)cc3c2C(C)C)cn(C)c1=O [Example 410] |
